Assay results taken from US8076487B2, “Pyridone derivative and herbicide” (Kumiai Chemical Industry Co., Ltd., priority 2006, dated 2011).

Key:
Assay type in all cases: in vivo
[1] = tested on: Japanese bulrush (Scirpus juncoides Roxb.); experiment: Test Example 1: herbicidal effect by soil application to paddy field; conditions: for herbicidal effect (index), Scirpus juncoides Roxb.: soil application to paddy field, rated by standard of Table 34; for herbicidal effect, Scirpus juncoides Roxb.: paddy field soil application, active ingredient 1,000 g per 1 hectare, wettable powder added dropwise to water surface the day after sowing, examined on the 21st day after application
In short: (§1)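 Plants were sown in flooded (3 cm) paddy soil and evaluated for herbicidal effect 21 days after soil application in a greenhouse.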

[2] = tested on: early watergrass (Echinochloa oryzicola Vasing); experiment: as above; conditions: for herbicidal effect (index), Echinochloa oryzicola Vasing: soil application to paddy field, rated by standard of Table 34; for herbicidal effect, Echinochloa oryzicola Vasing: paddy field soil application, active ingredient 1,000 g per 1 hectare, wettable powder added dropwise to water surface the day after sowing, examined on the 21st day after application
In short: as §1

[3] = tested on: heartshape false pickerelweed (Monochoria vaginalis (Burm.f.) C.Presl); experiment: as above; conditions: for herbicidal effect (index), Monochoria vaginalis (Burm.f.) C.Presl: soil application to paddy field, rated by standard of Table 34; for herbicidal effect, Monochoria vaginalis (Burm. f.) C. Presl: paddy field soil application, active ingredient 1,000 g per 1 hectare, wettable powder added dropwise to water surface the day after sowing, examined on the 21st day after application
In short: as §1

[4] = tested on: barnyardgrass (Echinochloa crus-galli (L.) P. Beauv. var. crus-galli); experiment: Test Example 2: herbicidal effect by soil application to upland field; conditions: soil surface spray, upland field soil, 1,000 g active ingredient per hectare, 21st day after application
In short: (§2)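 Soil surface treatment after sowing: wettable powder in water, 1,000 g a.i./ha, spray volume 1,000 L/ha. Greenhouse. Scored on a standard herbicidal scale at day 21.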

[5] = tested on: green foxtail (Setaria viridis (L.) P. Beauv.); experiment: as above; conditions: soil surface spray, upland field soil, 1,000 g active ingredient per hectare, 21st day after application
In short: as §2

[6] = tested on: slender amaranth (Amaranthus viridis L.); experiment: as above; conditions: soil surface spray, upland field soil, 1,000 g active ingredient per hectare, 21st day after application
In short: as §2

[7] = tested on: velvetleaf (Abutilon theophrasti medicus); experiment: as above; conditions: soil surface spray, upland field soil, 1,000 g active ingredient per hectare, 21st day after application
In short: as §2

[8] = tested on: barnyardgrass (Echinochloa crus-galli (L.) P. Beauv. var. crus-galli); experiment: Test Example 3: herbicidal effect by application to upland field (foliage treatment); conditions: foliage treatment, 1,000 g active ingredient per 1 hectare, 14th day after application, greenhouse
In short: (§3)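 Post-emergence spray at 1,000 g AI/ha of wettable powder in water (1,000 L/ha), onto seedlings grown 2 weeks in greenhouse field-soil pots. Graded day 14.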

[9] = tested on: green foxtail (Setaria viridis (L.) P. Beauv.); experiment: as above; conditions: foliage treatment, 1,000 g active ingredient per 1 hectare, 14th day after application, greenhouse
In short: as §3

[10] = tested on: slender amaranth (Amaranthus viridis L.); experiment: as above; conditions: foliage treatment, 1,000 g active ingredient per 1 hectare, 14th day after application, greenhouse
In short: as §3

[11] = tested on: velvetleaf (Abutilon theophrasti medicus); experiment: as above; conditions: foliage treatment, 1,000 g active ingredient per 1 hectare, 14th day after application, greenhouse
In short: as §3

| Structure (SMILES) | herbicidal effect (index), Scirpus juncoides Roxb. [1] | herbicidal effect (index), Echinochloa oryzicola Vasing [2] | herbicidal effect (index), Monochoria vaginalis (Burm.f.) C.Presl [3] | herbicidal effect (index), Barnyardgrass [4] | herbicidal effect (index), Green Foxtail [5] | herbicidal effect (index), Slender Amaranth [6] | herbicidal effect (index), Velvetleaf [7] | herbicidal effect, Barnyardgrass [8] | herbicidal effect, Green Foxtail [9] | herbicidal effect, Slender Amaranth [10] | herbicidal effect, Velvetleaf [11] | herbicidal effect, Scirpus juncoides Roxb. [1] | herbicidal effect, Echinochloa oryzicola Vasing [2] | herbicidal effect, Monochoria vaginalis (Burm. f.) C. Presl [3] |
| --- | --- | --- | --- | --- | --- | --- | --- | --- | --- | --- | --- | --- | --- | --- |
| O=C1CCCC(O)=C1C(=O)c1cnccn1 [Comparative Compound 1, reference compound] | 0 (0 to less than 10% of herbicidal effect and crop phytotoxicity) | 1 (10 to less than 30% of herbicidal effect and crop phytotoxicity) | 0 (0 to less than 10% of herbicidal effect and crop phytotoxicity) | 1 (10 to less than 30% of herbicidal effect and crop phytotoxicity) | 1 (10 to less than 30% of herbicidal effect and crop phytotoxicity) | 0 (0 to less than 10% of herbicidal effect and crop phytotoxicity) | 1 (10 to less than 30% of herbicidal effect and crop phytotoxicity) | 0 (0 to less than 10% of herbicidal effect and crop phytotoxicity) | 0 (0 to less than 10% of herbicidal effect and crop phytotoxicity) | 1 (10 to less than 30% of herbicidal effect and crop phytotoxicity) | 2 (30 to less than 50% of herbicidal effect and crop phytotoxicity) | – | – | – |
| O=C1CCCC(O)=C1C(=O)c1ccc2ccccc2n1 [Comparative Compound 2, reference compound] | 0 (0 to less than 10% of herbicidal effect and crop phytotoxicity) | 0 (0 to less than 10% of herbicidal effect and crop phytotoxicity) | 0 (0 to less than 10% of herbicidal effect and crop phytotoxicity) | 3 (50 to less than 70% of herbicidal effect and crop phytotoxicity) | 0 (0 to less than 10% of herbicidal effect and crop phytotoxicity) | 2 (30 to less than 50% of herbicidal effect and crop phytotoxicity) | 2 (30 to less than 50% of herbicidal effect and crop phytotoxicity) | 0 (0 to less than 10% of herbicidal effect and crop phytotoxicity) | 0 (0 to less than 10% of herbicidal effect and crop phytotoxicity) | 1 (10 to less than 30% of herbicidal effect and crop phytotoxicity) | 5 (90% or more of herbicidal effect and crop phytotoxicity) | – | – | – |
| C=CCn1c(C(F)(F)F)ccc(C(=O)C2=C(O)C(C)(C)C(=O)C(C)(C)C2=O)c1=O [II-42] | – | – | – | 5 (90% or more of herbicidal effect and crop phytotoxicity) | 3 (50 to less than 70% of herbicidal effect and crop phytotoxicity) | 5 (90% or more of herbicidal effect and crop phytotoxicity) | 5 (90% or more of herbicidal effect and crop phytotoxicity) | 5 (90% or more of herbicidal effect and crop phytotoxicity) | 3 (50 to less than 70% of herbicidal effect and crop phytotoxicity) | 5 (90% or more of herbicidal effect and crop phytotoxicity) | 5 (90% or more of herbicidal effect and crop phytotoxicity) | – | – | – |
| CS(=O)(=O)CCn1c(C(F)(F)F)ccc(C(=O)C2=C(O)C3CCC(C3)C2=O)c1=O (stereo not shown) [III-30] | – | – | – | 5 (90% or more of herbicidal effect and crop phytotoxicity) | 5 (90% or more of herbicidal effect and crop phytotoxicity) | 5 (90% or more of herbicidal effect and crop phytotoxicity) | 5 (90% or more of herbicidal effect and crop phytotoxicity) | 5 (90% or more of herbicidal effect and crop phytotoxicity) | 5 (90% or more of herbicidal effect and crop phytotoxicity) | 5 (90% or more of herbicidal effect and crop phytotoxicity) | 5 (90% or more of herbicidal effect and crop phytotoxicity) | – | – | – |
| CCCS(=O)(=O)Oc1c(C(=O)c2ccc(C(F)(F)F)n(CC3CCCO3)c2=O)cnn1CC (stereo not shown) [IV-207] | – | – | – | 5 (90% or more of herbicidal effect and crop phytotoxicity) | 5 (90% or more of herbicidal effect and crop phytotoxicity) | 5 (90% or more of herbicidal effect and crop phytotoxicity) | 5 (90% or more of herbicidal effect and crop phytotoxicity) | – | – | – | – | 5 (90% or more of herbicidal effect and crop phytotoxicity) | 5 (90% or more of herbicidal effect and crop phytotoxicity) | 5 (90% or more of herbicidal effect and crop phytotoxicity) |
| CCCS(=O)(=O)Oc1c(C(=O)c2ccc(C(F)(F)F)n(-c3ccccc3)c2=O)c(C)nn1C [IV-237] | – | – | – | 4 (70 to less than 90% of herbicidal effect and crop phytotoxicity) | 4 (70 to less than 90% of herbicidal effect and crop phytotoxicity) | 5 (90% or more of herbicidal effect and crop phytotoxicity) | 4 (70 to less than 90% of herbicidal effect and crop phytotoxicity) | – | – | – | – | 5 (90% or more of herbicidal effect and crop phytotoxicity) | 5 (90% or more of herbicidal effect and crop phytotoxicity) | 5 (90% or more of herbicidal effect and crop phytotoxicity) |
| CCCn1c(C(F)(F)F)c(C)cc(C(=O)c2cnn(C)c2O)c1=O [IV-241] | – | – | – | 4 (70 to less than 90% of herbicidal effect and crop phytotoxicity) | 3 (50 to less than 70% of herbicidal effect and crop phytotoxicity) | 5 (90% or more of herbicidal effect and crop phytotoxicity) | 5 (90% or more of herbicidal effect and crop phytotoxicity) | – | – | – | – | 5 (90% or more of herbicidal effect and crop phytotoxicity) | 5 (90% or more of herbicidal effect and crop phytotoxicity) | 5 (90% or more of herbicidal effect and crop phytotoxicity) |
| CCCn1c(C(F)(F)F)ccc(C(=O)C(C#N)=C(O)C2CC2)c1=O [V-21] | 5 (90% or more of herbicidal effect and crop phytotoxicity) | 5 (90% or more of herbicidal effect and crop phytotoxicity) | 5 (90% or more of herbicidal effect and crop phytotoxicity) | 5 (90% or more of herbicidal effect and crop phytotoxicity) | 5 (90% or more of herbicidal effect and crop phytotoxicity) | 5 (90% or more of herbicidal effect and crop phytotoxicity) | 5 (90% or more of herbicidal effect and crop phytotoxicity) | – | – | – | – | – | – | – |
| N#CC(C(=O)c1ccc(C(F)(F)F)n(-c2ccccc2)c1=O)=C(O)C1CC1 [V-23] | 5 (90% or more of herbicidal effect and crop phytotoxicity) | 5 (90% or more of herbicidal effect and crop phytotoxicity) | 5 (90% or more of herbicidal effect and crop phytotoxicity) | 5 (90% or more of herbicidal effect and crop phytotoxicity) | 5 (90% or more of herbicidal effect and crop phytotoxicity) | 5 (90% or more of herbicidal effect and crop phytotoxicity) | 5 (90% or more of herbicidal effect and crop phytotoxicity) | – | – | – | – | – | – | – |
